Experiments:
[1] = acute toxicity (LD50) by intraperitoneal administration in mice; conditions: mouse, in vivo, ip, mice (male, 20 g)
Experimental: On the other hand, LD50 values for N^2 -dansyl-N-butyl-L-argininamide and N^2 -dansyl-N-methyl-N-butyl-L-argininamide are 75 and 70 milligrams per kilogram, respectively. The therapeutic agents of this invention may be administered to mammals including humans, alone or in combination with pharmaceutically acceptable carriers, the proportion of which is determined by the solubility and chemical nature of the compound, chosen route of administration and standard pharmaceutical practice. For example, the compounds may be injected parenterally, that is, intramuscularly, intravenously or subcutaneously. For parenteral administration, the compounds may be used in the form of sterile solutions containing other solutes, for example, sufficient saline or glucose to make the solution isotonic. The compounds may be administered orally in the form of tablets, capsules, or granules containing suitable excipients such as starch, lactose, white sugar and the like. The compounds may be administered sublingually in the form of troches or lozenges in which each active ingredient is mixed with sugar or corn syrups, flavoring agents and dyes, and then dehydrated sufficiently to make the mixture suitable for pressing into solid form. The compounds may be administered orally in the form of solutions which may contain coloring and flavoring agents.

thrombin = target: T1, thrombin (Bos taurus, UniProt P00735); assay: fibrinogen coagulation time; assay type: biochemical; conditions: bovine fibrinogen, thrombin 5 units/ml, borate saline buffer pH 7.4, 25° C; normal coagulation time 50-55 seconds to 100-110 seconds; read-out: Concentration required to prolong the coagulation time by a factor of two
T1 construct: clotting of bovine fibrinogen
Experimental: The measurement of the fibrinogen coagulation time was conducted as follows:
Immediately after mixing, the reaction mixture was transferred from the ice bath to a bath maintained at 25° C. Coagulation times were taken as the period between the time of transference to the 25° C bath and the time of the first appearance of fibrin threads.
The term "concentration required to prolong the coagulation time by a factor of two" is the concentration of an active ingredient required to prolong the normal coagulation time 50-55 seconds to 100-110 seconds.

For `COc1cc2ccc(S(=O)(=O)N[C@@H](CCCNC(=N)N)C(=O)N3CCCCC3C(=O)O)cc2cc1OC` (stereo partly drawn) [Sample 2, 1-[N^2-(6,7-dimethoxy-2-naphthylsulfonyl)-L-arginyl]-2-piperidinecarboxylic acid], which LD50 [1] is on record?
The LD50 was 1500 mg/kg.

Which IC (2-fold clotting time) (thrombin) does the source give for `COc1ccc2cc(S(=O)(=O)N[C@@H](CCCNC(=N)N)C(=O)N3CCCCC3C(=O)O)ccc2c1` (stereo partly drawn) [Sample 4, 1-[N^2-(6-methoxy-2-naphthylsulfonyl)-L-arginyl]-2-piperidinecarboxylic acid] here?
Its IC (2-fold clotting time) is 3 µM.

For `COc1cc2ccc(S(=O)(=O)N[C@@H](CCCNC(=N)N)C(=O)N3CCC(C)CC3C(=O)O)cc2cc1OC` (stereo partly drawn) [Sample 5, 1-[N^2-(6,7-dimethoxy-2-naphthylsulfonyl)-L-arginyl]-4-methyl-2-piperidinecarboxylic acid], which IC (2-fold clotting time) (thrombin) is on record?
The IC (2-fold clotting time) was 0.4 µM.

For `CCOC(=O)C1CC(C)CCN1C(=O)[C@H](CCCNC(=N)N)NS(=O)(=O)c1ccc2ccc(OC)cc2c1` (stereo partly drawn) [Sample 6, Ethyl 1-[N^2-(7-methoxy-2-naphthylsulfonyl)-L-arginyl]-4-methyl-2-piperidinecarboxylate], which LD50 [1] is on record?
The LD50 was 670 to 1000 mg/kg.

Which IC (2-fold clotting time) (thrombin) does the source give for `COc1ccc2ccc(S(=O)(=O)N[C@@H](CCCNC(=N)N)C(=O)N3CCC(C)CC3C(=O)O)cc2c1` (stereo partly drawn) [Sample 7, 1-[N^2-(7-methoxy-2-naphthylsulfonyl)-L-arginyl]-4-methyl-2-piperidinecarboxylicacid] here?
The IC (2-fold clotting time) was 0.15 µM.

What does the source list for `COc1ccc2cc(S(=O)(=O)N[C@@H](CCCNC(=N)N)C(=O)N3CCC(C)CC3C(=O)O)cc(OC)c2c1` (stereo partly drawn) [Sample 11, 1-[N^2-(4,6-dimethoxy-2-naphthylsulfonyl)-L-arginyl]-4-methyl-2-piperidinecarboxylic acid]?
LD50 [1]: 670 to 1000 mg/kg; IC (2-fold clotting time) (thrombin): 0.35 µM

For `CCCC1CCN(C(=O)[C@H](CCCNC(=N)N)NS(=O)(=O)c2ccc3cc(OC)c(OC)cc3c2)C(C(=O)O)C1` (stereo partly drawn) [Sample 19, 1-[N^2-(6,7-dimethoxy-2-naphthylsulfonyl)-L-arginyl]-4-propyl-2-piperidinecarboxylic acid], which IC (2-fold clotting time) (thrombin) is on record?
Its IC (2-fold clotting time) is 0.5 µM.

For `COc1cc2ccc(S(=O)(=O)N[C@@H](CCCNC(=N)N)C(=O)N3CCC(c4ccccc4)CC3C(=O)O)cc2cc1OC` (stereo partly drawn) [Sample 30, 1-[N^2-(6,7-dimethoxy-2-naphthylsulfonyl)-L-arginyl]-4-phenyl-2-piperidinecarboxylic acid], which IC (2-fold clotting time) (thrombin) is on record?
Its IC (2-fold clotting time) is 12 µM.

Source: patent US4072757A, “N^2 alkoxynaphthylsulfonyl-L-argininamides and the pharmaceutically acceptable salts thereof” (Mitsubishi Chemical Industries Limited, priority 1974, dated 1978)
